Test results published in ChEMBL document CHEMBL1201862, “PubChem BioAssay data set” (2004).
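Briefly, cells in 96-well plates were exposed to five compound concentrations for 48 h, and endpoints were estimated by linear interpolation. Abbreviation: GI50, concentration required for 50% inhibition of growth.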 Calls of active or inactive are those of the source. Cut-off read from the data, not from the text of the source: active = GI50 up to about 1.1 µM and inactive = higher.

Key:
Experiment in all cases: NCI tumour cell line growth inhibition, 48 h
OVCAR-4 = test system: OVCAR-4
T47D = test system: T47D
RPMI-8226 = test system: RPMI-8226
SK-MEL-2 = test system: SK-MEL-2
SK-MEL-5 = test system: SK-MEL-5
DU-145 = test system: DU-145
UACC-62 = test system: UACC-62
IGROV-1 = test system: IGROV-1
MDA-N = test system: MDA-N
CCRF-CEM = test system: CCRF-CEM
HOP-62 = test system: HOP-62
OVCAR-3 = test system: OVCAR-3
RXF 393 = test system: RXF 393
KM12 = test system: KM12
ACHN = test system: ACHN
SW-620 = test system: SW-620
NCI-H460 = test system: NCI-H460
Hs-578T = test system: Hs-578T
LOX IMVI = test system: LOX IMVI
786-0 = test system: 786-0
SK-MEL-28 = test system: SK-MEL-28
M14 = test system: M14
HCT-116 = test system: HCT-116
PC-3 = test system: PC-3
HCT-15 = test system: HCT-15
A549 = test system: A549
COLO 205 = test system: COLO 205
SK-OV-3 = test system: SK-OV-3
SF-268 = test system: SF-268
SN12C = test system: SN12C
HT-29 = test system: HT-29
OVCAR-5 = test system: OVCAR-5
TK-10 = test system: TK-10
NCI-H23 = test system: NCI-H23
HL-60 = test system: HL-60
MDA-MB-435 = test system: MDA-MB-435
SNB-19 = test system: SNB-19
U-251 = test system: U-251
SF-295 = test system: SF-295
NCI/ADR-RES = test system: NCI/ADR-RES
SNB-75 = test system: SNB-75
UACC-257 = test system: UACC-257
K562 = test system: K562
HCC 2998 = test system: HCC 2998
SF-539 = test system: SF-539
CAKI-1 = test system: CAKI-1
MOLT-4 = test system: MOLT-4
MCF7 = test system: MCF7
MDA-MB-231 = test system: MDA-MB-231
SR = test system: SR
HOP-92 = test system: HOP-92
UO-31 = test system: UO-31
BT-549 = test system: BT-549
Malme-3M = test system: Malme-3M
OVCAR-8 = test system: OVCAR-8
NCI-H226 = test system: NCI-H226
NCI-H522 = test system: NCI-H522
EKVX = test system: EKVX

For `CC(=O)OCC1OC(n2c(-c3ccccc3)c(/N=N/c3ccccc3)c(C)c(C#N)c2=S)C(OC(C)=O)C(OC(C)=O)C1OC(C)=O` (configuration not stated), the GI50 (OVCAR-4) was > 100 µM (inactive), the GI50 (T47D) was > 100 µM (inactive) and the GI50 (RPMI-8226) was > 100 µM (inactive). The GI50 (SK-MEL-2) was > 100 µM (inactive), the GI50 (SK-MEL-5) was > 100 µM (inactive) and the GI50 (DU-145) was > 100 µM (inactive). The GI50 (UACC-62) was > 100 µM (inactive), the GI50 (IGROV-1) was > 100 µM (inactive) and the GI50 (MDA-N) was > 100 µM (inactive). For the same compound, the GI50 (CCRF-CEM) was > 100 µM (inactive), the GI50 (HOP-62) was > 100 µM (inactive) and the GI50 (OVCAR-3) was > 100 µM (inactive). The GI50 (RXF 393) was > 100 µM (inactive), the GI50 (KM12) was > 100 µM (inactive) and the GI50 (ACHN) was > 100 µM (inactive). The GI50 (SW-620) was > 100 µM (inactive), the GI50 (NCI-H460) was > 100 µM (inactive) and the GI50 (Hs-578T) was > 100 µM (inactive). The GI50 (LOX IMVI) was > 100 µM (inactive), the GI50 (786-0) was > 100 µM (inactive) and the GI50 (SK-MEL-28) was > 100 µM (inactive). The GI50 (M14) was > 100 µM (inactive), the GI50 (HCT-116) was > 100 µM (inactive) and the GI50 (PC-3) was > 100 µM (inactive). The GI50 (HCT-15) was over 100 µM, the GI50 (A549) was > 100 µM (inactive) and the GI50 (COLO 205) was > 100 µM (inactive). For the same compound, the GI50 (SK-OV-3) was > 100 µM (inactive), the GI50 (SF-268) was > 100 µM (inactive) and the GI50 (SN12C) was > 100 µM (inactive). For the same compound, the GI50 (HT-29) was > 100 µM (inactive), the GI50 (OVCAR-5) was > 100 µM (inactive) and the GI50 (TK-10) was > 100 µM (inactive). The GI50 (NCI-H23) was > 100 µM (inactive), the GI50 (HL-60) was > 100 µM (inactive) and the GI50 (MDA-MB-435) was > 100 µM (inactive). For the same compound, the GI50 (SNB-19) was > 100 µM (inactive), the GI50 (U-251) was > 100 µM (inactive) and the GI50 (SF-295) was > 100 µM (inactive). For the same compound, the GI50 (NCI/ADR-RES) was > 100 µM (inactive), the GI50 (SNB-75) was > 100 µM (inactive) and the GI50 (UACC-257) was 12.3 µM (inactive). The GI50 (K562) was > 100 µM (inactive), the GI50 (HCC 2998) was > 100 µM (inactive) and the GI50 (SF-539) was > 100 µM (inactive). For the same compound, the GI50 (CAKI-1) was > 100 µM (inactive), the GI50 (MOLT-4) was > 100 µM (inactive) and the GI50 (MCF7) was > 100 µM (inactive). The GI50 (MDA-MB-231) was > 100 µM (inactive), the GI50 (SR) was > 100 µM (inactive) and the GI50 (HOP-92) was 28.4 µM (inactive). The GI50 (UO-31) was > 100 µM (inactive), the GI50 (BT-549) was > 100 µM (inactive) and the GI50 (Malme-3M) was > 100 µM (inactive).

`O=C1CC(=O)NC(NNS(=O)(=O)c2ccccc2)=N1` was tested, and the GI50 (OVCAR-4) was > 100 µM (inactive), the GI50 (T47D) was > 100 µM (inactive) and the GI50 (RPMI-8226) was > 100 µM (inactive). For the same compound, the GI50 (SK-MEL-2) was > 100 µM (inactive), the GI50 (SK-MEL-5) was > 100 µM (inactive) and the GI50 (DU-145) was > 100 µM (inactive). The GI50 (UACC-62) was > 100 µM (inactive), the GI50 (IGROV-1) was > 100 µM (inactive) and the GI50 (OVCAR-8) was > 100 µM (inactive). For the same compound, the GI50 (MDA-N) was > 100 µM (inactive), the GI50 (CCRF-CEM) was > 100 µM (inactive) and the GI50 (HOP-62) was > 100 µM (inactive). For the same compound, the GI50 (OVCAR-3) was > 100 µM (inactive), the GI50 (RXF 393) was > 100 µM (inactive) and the GI50 (KM12) was > 100 µM (inactive). The GI50 (ACHN) was > 100 µM (inactive), the GI50 (SW-620) was > 100 µM (inactive) and the GI50 (NCI-H460) was > 100 µM (inactive). The GI50 (Hs-578T) was > 100 µM (inactive), the GI50 (786-0) was > 100 µM (inactive) and the GI50 (SK-MEL-28) was > 100 µM (inactive). For the same compound, the GI50 (M14) was > 100 µM (inactive), the GI50 (HCT-116) was > 100 µM (inactive) and the GI50 (PC-3) was > 100 µM (inactive). The GI50 (HCT-15) was over 100 µM, the GI50 (A549) was > 100 µM (inactive) and the GI50 (COLO 205) was > 100 µM (inactive). For the same compound, the GI50 (SK-OV-3) was > 100 µM (inactive), the GI50 (SF-268) was > 100 µM (inactive) and the GI50 (SN12C) was > 100 µM (inactive). For the same compound, the GI50 (HT-29) was > 100 µM (inactive), the GI50 (OVCAR-5) was > 100 µM (inactive) and the GI50 (TK-10) was > 100 µM (inactive). The GI50 (NCI-H23) was > 100 µM (inactive), the GI50 (MDA-MB-435) was > 100 µM (inactive) and the GI50 (NCI-H226) was > 100 µM (inactive). The GI50 (SNB-19) was > 100 µM (inactive), the GI50 (U-251) was > 100 µM (inactive) and the GI50 (SF-295) was > 100 µM (inactive). For the same compound, the GI50 (NCI/ADR-RES) was > 100 µM (inactive), the GI50 (SNB-75) was > 100 µM (inactive) and the GI50 (UACC-257) was > 100 µM (inactive). For the same compound, the GI50 (K562) was > 100 µM (inactive), the GI50 (HCC 2998) was > 100 µM (inactive) and the GI50 (SF-539) was > 100 µM (inactive). The GI50 (CAKI-1) was > 100 µM (inactive), the GI50 (MOLT-4) was > 100 µM (inactive) and the GI50 (NCI-H522) was > 100 µM (inactive). The GI50 (MCF7) was > 100 µM (inactive), the GI50 (MDA-MB-231) was > 100 µM (inactive) and the GI50 (SR) was > 100 µM (inactive). For the same compound, the GI50 (HOP-92) was > 100 µM (inactive), the GI50 (UO-31) was > 100 µM (inactive) and the GI50 (BT-549) was > 100 µM (inactive). The GI50 (Malme-3M) was > 100 µM (inactive).

With `CC(C)c1ccc2c(c1)C=C1OC(=O)[C@]3(C)CCC[C@@]2(C)C13` (some centres not stated) the GI50 (OVCAR-4) was > 100 µM (inactive), the GI50 (T47D) was > 100 µM (inactive) and the GI50 (RPMI-8226) was > 100 µM (inactive). For the same compound, the GI50 (SK-MEL-5) was > 100 µM (inactive), the GI50 (DU-145) was > 100 µM (inactive) and the GI50 (UACC-62) was > 100 µM (inactive). For the same compound, the GI50 (IGROV-1) was > 100 µM (inactive), the GI50 (OVCAR-8) was > 100 µM (inactive) and the GI50 (MDA-N) was > 100 µM (inactive). The GI50 (CCRF-CEM) was > 100 µM (inactive), the GI50 (HOP-62) was > 100 µM (inactive) and the GI50 (OVCAR-3) was > 100 µM (inactive). For the same compound, the GI50 (RXF 393) was > 100 µM (inactive), the GI50 (KM12) was > 100 µM (inactive) and the GI50 (ACHN) was > 100 µM (inactive). The GI50 (SW-620) was > 100 µM (inactive), the GI50 (NCI-H460) was > 100 µM (inactive) and the GI50 (Hs-578T) was > 100 µM (inactive). The GI50 (786-0) was > 100 µM (inactive), the GI50 (SK-MEL-28) was > 100 µM (inactive) and the GI50 (M14) was > 100 µM (inactive). The GI50 (HCT-116) was > 100 µM (inactive), the GI50 (PC-3) was > 100 µM (inactive) and the GI50 (HCT-15) was over 100 µM. For the same compound, the GI50 (A549) was > 100 µM (inactive), the GI50 (EKVX) was > 100 µM (inactive) and the GI50 (COLO 205) was > 100 µM (inactive). For the same compound, the GI50 (SK-OV-3) was > 100 µM (inactive), the GI50 (SF-268) was > 100 µM (inactive) and the GI50 (SN12C) was > 100 µM (inactive). For the same compound, the GI50 (HT-29) was > 100 µM (inactive), the GI50 (TK-10) was > 100 µM (inactive) and the GI50 (NCI-H23) was > 100 µM (inactive). For the same compound, the GI50 (HL-60) was 44.2 µM (inactive), the GI50 (MDA-MB-435) was > 100 µM (inactive) and the GI50 (NCI-H226) was > 100 µM (inactive). For the same compound, the GI50 (SNB-19) was > 100 µM (inactive), the GI50 (U-251) was > 100 µM (inactive) and the GI50 (SF-295) was > 100 µM (inactive). For the same compound, the GI50 (NCI/ADR-RES) was > 100 µM (inactive), the GI50 (SNB-75) was > 100 µM (inactive) and the GI50 (UACC-257) was > 100 µM (inactive). For the same compound, the GI50 (K562) was > 100 µM (inactive), the GI50 (HCC 2998) was > 100 µM (inactive) and the GI50 (SF-539) was > 100 µM (inactive). For the same compound, the GI50 (CAKI-1) was > 100 µM (inactive), the GI50 (MOLT-4) was > 100 µM (inactive) and the GI50 (NCI-H522) was 73.5 µM (inactive). For the same compound, the GI50 (MCF7) was > 100 µM (inactive), the GI50 (MDA-MB-231) was > 100 µM (inactive) and the GI50 (SR) was > 100 µM (inactive). For the same compound, the GI50 (UO-31) was > 100 µM (inactive) and the GI50 (BT-549) was > 100 µM (inactive).
